# According to patent US20260042764A1, “COMPOSITIONS AND METHODS FOR INHIBITION OF KRAS” (TheRas, Inc., priority 2022, published 2026):
# Tests used:
# [1] = target: T1, Avi-KRAS G12D (1-169) GppNHp/RAF1 RBD-3xFLAG (52-151) (Homo sapiens, UniProt P01116, G12D); assay: Raf1-KRAS G12D-GppNHP disruption HTRF assay (Biological Example 1); assay type: binding
# T1 construct: Avi-KRAS G12D (1-169)
# Summary of the method: (§1)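 Compound disruption of KRAS-GppNHp/RAF1 RBD binding read by HTRF after two sequential 1 h room-temperature incubations (protein mix, then detection reagents), shaken at 700 rpm. Buffer Tris pH 7.5 with MgCl2, BSA, Tween and 10% DMSO; results given as percent activity relative to DMSO (100%).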
# [2] = target: T2, Avi-KRAS WT (1-169) GppNHp/RAF1 RBD-3xFLAG (52-151) (Homo sapiens, UniProt P01116); assay: Raf1-KRAS WT-GppNHP disruption HTRF assay (Biological Example 1); assay type: binding
# T2 construct: Avi-KRAS WT (1-169)
# T2 sequence (P01116 1-169 isoform P01116-2): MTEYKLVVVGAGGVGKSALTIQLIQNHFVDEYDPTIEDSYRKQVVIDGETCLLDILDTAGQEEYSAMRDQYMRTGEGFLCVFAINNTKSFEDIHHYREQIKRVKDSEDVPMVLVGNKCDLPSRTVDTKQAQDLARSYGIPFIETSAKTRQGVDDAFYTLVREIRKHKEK
# Summary of the method: as §1
# SW620 cells (KRAS G12V) = assay: Cell-based pERK HTRF assay in SW620 cell (Biological Example 4)
# Summary of the method: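 SW620 seeded in RPMI/10% FBS, next day dosed 4 h (top 1 μM, half-log, 9 pts, 0.25% DMSO). Lysed, pERK by d2/Eu cryptate HTRF, 4–24 h RT, 615 nm read.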
# SW1900 cells (KRAS G12D) = assay: Cell-based pERK HTRF assay in SW1900 cells (Biological Example 5)
# Protocol: Biological Example 5: Cell-based PERK HTRF assay in AsPC-1, SW1900, HPAC, Capan-2, RKN, H358, HCT116, KP-2, H1573, A549, MKN1, and HT1080 cells
# The inhibition of ERK phosphorylation, as measured using the HTRF Advanced Phospho-ERK 1/2 (Thr202/Tyr204) Detection Assay kit (Perkin Elmer), was used to determine the effectiveness of test compounds in disrupting KRAS-driven protein/effector signaling in cells.
# On day 1, cells were seeded into 96-well plates at 2.5×10^4 cells/well in 100 μL of complete growth media supplemented with 10% fetal bovine serum (FBS) and incubated at 37° C., in the presence of 5% CO2.
# On day 2, cells were treated with compounds diluted in DMSO at 0.25% final DMSO concentration. Compounds were dosed in a 9-point concentration curve with three-fold dilution between concentrations. Cells were incubated in the presence of compound for two hours at 37° C. Following this treatment period, cells were harvested by aspirating the media, adding 40 μL of kit-supplied 1x lysis buffer per well, and shaking for 30 minutes at 250 rpm at room temperature.
# Following cell lysis, samples were homogenized by pipetting up and down twenty times and 16 μL of cell lysate per well was transferred from the 96-well cell culture plate to two wells of a 384-well detection plate. A complete detection buffer was prepared by diluting D2 and Eu Cryptate antibodies 1:20 in kit-provided detection solution, 4 μL of complete detection buffer was then added to each well with lysate. Plates were incubated with gentle rocking for 24 hours at 4° C.
# Following this incubation period, plates were centrifuged at 500×g for one minute and analyzed on a CLARIOstar plate reader. Data was imported into Microsoft Excel and the signal from the 665 nm channel was divided by the signal from the 620 nm channel. % pERK was calculated as: […]
# Data was imported to the Prism software package (Graphpad) and EC50 values were calculated using the log (inhibitor) vs, response—variable slopc (Four parameters) model.
# HCT116 cells (KRAS G13D) = assay: 3D Cell viability assay in HCT116 cells (Biological Example 6); assay type: cell-based; settings: Homo sapiens, HCT-116; HCT116 (KRAS G13D) spheroids, 72 hours
# Protocol: Biological Example 6: 3D Cell viability assay in AsPC-1, SW1900, HPAC, Capan-2, RKN, H358, HCT116, KP-2, H1573, A549, MKN1, and HT1080 cells
# The inhibition of cellular viability as a result of test compound treatment in a spheroid assay was measured using the CellTiter-Glow 3D Cell Viability Assay (Promega).
# On Day 1, 1000 cells per well were seeded in 150 μL of complete growth media supplemented with 10% fetal bovine serum (FBS) and incubated at 37° C., in the presence of 5% CO2 in 96-well ultra-low attachment microplates (Corning) for 48 hours undisturbed to allow spheroids to form.
# Following spheroid formation, cells were treated with compounds diluted in DMSO at 0.25% final DMSO concentration. Compounds were dosed in a 9-point concentration curve with three-fold dilution between concentrations. Cells were incubated in the presence of compound for 72 hours at 37° C., in the presence of 5% CO2.
# Following this incubation period, the kit-provided CTG reagent was allowed to equilibrate for 30 minutes at room temperature, 150 μL of equilibrated CTG reagent was added to each well, and the plate was sealed before shaking at 250 rpm for 10 minutes at room temperature to lyse the cells, 150 μL of lysate per well was transferred to a 96-well plate and luminescence was read on a CLARIOstar plate reader.
# Data was imported into the Prism software package (Graphpad) and EC50 values were calculated using the log (inhibitor) vs, response—variable slope (Four parameters) model.
# [3] = KRAS G12D, GppNHp-loaded, class symbols
# [4] = KRAS WT, GppNHp-loaded, class symbols
# [5] = Homo sapiens, SW-620, SW620 (KRAS G12V) cells
# [6] = Homo sapiens, SW-620, SW620 (KRAS G12V) cells, pERK HTRF, class symbols
# [7] = Homo sapiens, SW1990, SW1990 cells (text: SW1900, KRAS G12D)
# [8] = SW1990 cells (text: SW1900, KRAS G12D)
# [9] = KRAS G12D, GppNHp-loaded, Table 11
# [10] = KRAS WT, GppNHp-loaded, Table 11
# [11] = SW620 (KRAS G12V) cells, pERK HTRF
# [12] = Homo sapiens, SW-620, SW620 (KRAS G12V) cells, pERK HTRF
# T1 sequence (P01116 1-169 isoform P01116-2 G12D): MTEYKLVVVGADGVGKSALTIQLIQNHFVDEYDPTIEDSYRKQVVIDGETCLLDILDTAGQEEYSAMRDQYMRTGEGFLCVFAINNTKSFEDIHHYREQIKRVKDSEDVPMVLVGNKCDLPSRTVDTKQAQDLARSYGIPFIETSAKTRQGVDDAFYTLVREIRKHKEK
Compound,"IC50 [1, 3]","IC50 [2, 4]",IC50 (SW620 cells (KRAS G12V); [5]),IC50 (SW620 cells (KRAS G12V); [6]),IC50 (SW1900 cells (KRAS G12D); [7]),IC50 (HCT116 cells (KRAS G13D)),other results
"C[C@H]1Cn2nc(C(=O)N(C)C)cc2CN1c1nc(OC[C@@]23CCCN2C[C@H](F)C3)nc2c(F)c(-c3ccc(F)c4sc(N)c(C#N)c34)c(C(F)(F)F)cc12 (atropisomer, axis not shown) [Compound 610]",< 100 nM,100 to 1000 nM,< 100 nM,< 100 nM,≤ 100 nM,,
"C/C=C/C(=O)N1CC[C@H](N(CC)c2nc(OC[C@@]34CCCN3C[C@H](F)C4)nc3c(F)c(-c4ccc(F)c5sc(N)c(C#N)c45)c(C(F)(F)F)cc23)C1 (atropisomer, axis not shown) [Compound 674]",< 100 nM,< 100 nM,100 to 1000 nM,< 100 nM,≤ 100 nM,,
"CCN(c1nc(OC[C@@]23CCCN2C[C@H](F)C3)nc2c(F)c(-c3ccc(F)c4sc(N)c(C#N)c34)c(C(F)(F)F)cc12)[C@H]1C[C@H](COC)N(C(=O)C2CC2)C1 (atropisomer, axis not shown) [Compound 696]",< 100 nM,< 100 nM,< 100 nM,< 100 nM,≤ 100 nM,100 to 1000 nM,
"CCN(c1nc(OC[C@@]23CCCN2C[C@H](F)C3)nc2c(F)c(-c3ccc(F)c4sc(N)c(C#N)c34)c(C(F)(F)F)cc12)[C@H]1C[C@H](C)N(C(=O)OC)C1 (atropisomer, axis not shown) [Compound 704]",< 100 nM,< 100 nM,< 100 nM,< 100 nM,≤ 100 nM,,
"CCN(c1nc(OC[C@@]23CCCN2C[C@H](F)C3)nc2c(F)c(-c3ccc(F)c4sc(N)c(C#N)c34)c(C(F)(F)F)cc12)[C@H]1C[C@H](C)N(C(=O)[C@@H]2CC2(F)F)C1 (atropisomer, axis not shown) [Compound 751]",< 100 nM,100 to 1000 nM,,< 100 nM,≤ 100 nM,100 to 1000 nM,
"CCN(c1nc(OC[C@@]23CCCN2C[C@H](F)C3)nc2c(F)c(-c3ccc(F)c4sc(N)c(C#N)c34)c(C(F)(F)F)cc12)[C@H]1C[C@H](C)N(C(=O)N2CC(OC)C2)C1 (atropisomer, axis not shown) [Compound 764]",< 100 nM,< 100 nM,< 100 nM,< 100 nM,≤ 100 nM,,
"Cc1c(C(=O)N(C)C)nn2c1CN(c1nc(OC[C@@]34CCCN3C[C@H](F)C4)nc3c(F)c(-c4ccc(F)c5sc(N)c(C#N)c45)c(C(F)(F)F)cc13)CC2 (atropisomer, axis not shown; (aS)) [Compound 590, 5-((S)-7-(2-amino-3-cyano-7-fluorobenzo[b]thiophen-4-yl)-8-fluoro-2-(((2R,7aS)-2-fluorotetrahydro-1H-pyrrolizin-7a(5H)-yl)methoxy)-6-(trifluoromethyl)quinazolin-4-yl)-N,N,3-trimethyl-4,5,6,7-tetrahydropyrazolo[1,5-a]pyrazine-2-carboxamide]",< 100 nM,< 100 nM,,< 100 nM,,100 to 1000 nM,IC50 (SW620 cells (KRAS G12V); SW620 (KRAS G12V) cells): < 100 nM; IC50 (SW1900 cells (KRAS G12D); [8]): ≤ 100 nM
"CCN(c1nc(OC[C@@]23CCCN2C[C@H](F)C3)nc2c(F)c(-c3ccc(F)c4sc(N)c(C#N)c34)c(C(F)(F)F)cc12)[C@H]1CC(=O)N2CCC[C@@H]12 (atropisomer, axis not shown; (aS)) [Compound 697, 2-amino-4-((S)-4-(ethyl((1S,7aS)-3-oxohexahydro-1H-pyrrolizin-1-yl)amino)-8-fluoro-2-(((2R,7aS)-2-fluorotetrahydro-1H-pyrrolizin-7a(5H)-yl)methoxy)-6-(trifluoromethyl)quinazolin-7-yl)-7-fluorobenzo[b]thiophene-3-carbonitrile]",< 100 nM,< 100 nM,< 100 nM,< 100 nM,≤ 100 nM,100 to 1000 nM,
"CC(=O)N1CC[C@@H](N(C)c2nc(OC[C@@]34CCCN3C[C@H](F)C4)nc3c(F)c(-c4ccc(F)c5sc(N)c(C#N)c45)c(C(F)(F)F)cc23)[C@H]1C (single isomer, unassigned) [Compound 193]",,,< 100 nM,,≤ 100 nM,≤ 100 nM,"IC50 [1, 9]: < 100 nM; IC50 [2, 10]: < 100 nM; IC50 (SW620 cells (KRAS G12V); [11]): < 100 nM"
"N#Cc1c(N)sc2c(F)ccc(-c3c(C(F)(F)F)cc4c(N5CCOCC5)nc(OC[C@@]56CCCN5C[C@H](F)C6)nc4c3F)c12 (single isomer, unassigned) [Compound 198]",,,< 100 nM,,≤ 100 nM,≤ 100 nM,"IC50 [1, 9]: 100 to 1000 nM; IC50 [2, 10]: 100 to 1000 nM; IC50 (SW620 cells (KRAS G12V); [11]): < 100 nM"
"N#Cc1c(N)sc2c(F)ccc(-c3c(C(F)(F)F)cc4c(N5CC6CC(C5)O6)nc(OC[C@@]56CCCN5C[C@H](F)C6)nc4c3F)c12 (single isomer, unassigned) [Compound 275]",,,< 100 nM,,≤ 100 nM,100 to 1000 nM,"IC50 [1, 9]: 100 to 1000 nM; IC50 [2, 10]: 100 to 1000 nM; IC50 (SW620 cells (KRAS G12V); [12]): < 100 nM"
N#Cc1c(N)sc2c(F)ccc(-c3c(C(F)(F)F)cc4c(N5CC6CC5CO6)nc(OC[C@@]56CCCN5C[C@H](F)C6)nc4c3F)c12 (stereo partly shown) [Compound 147],,,,,,100 to 1000 nM,"IC50 [1, 9]: 100 to 1000 nM; IC50 [2, 10]: 100 to 1000 nM; IC50 (SW620 cells (KRAS G12V); [12]): < 100 nM"
CCN(c1nc(OC[C@@]23CCCN2C[C@H](F)C3)nc2c(F)c(-c3ccc(F)c4sc(N)c(C#N)c34)c(C(F)(F)F)cc12)[C@H]1C[C@H](C)N(C(C)=O)C1 [Compound 463],,,,,≤ 100 nM,,IC50 ([1]; KRAS G12D-GppNHp/RAF1 RBD HTRF): < 100 nM; IC50 ([2]; KRAS WT-GppNHp/RAF1 RBD HTRF): < 100 nM; IC50 (SW620 cells (KRAS G12V); [12]): < 100 nM
CCN(c1nc(OCC23CCCN2CC(F)C3)nc2c(F)c(-c3ccc(F)c4sc(N)c(C#N)c34)c(C(F)(F)F)cc12)C1CC(C)N(C(=O)N2CC(F)C2)C1 (stereo not shown) [Compound 759],< 100 nM,< 100 nM,,,,,"IC50 (SW620 cells (KRAS G12V); SW620 (KRAS G12V) cells, pERK HTRF, class symbols): < 100 nM; IC50 (SW1900 cells (KRAS G12D); [8]): ≤ 100 nM"
